Data: patent US12509424B2, “Compound and composition as PDGF receptor kinase inhibitor” (NIPPON SHINYAKU CO., LTD., priority 2019, dated 2025)

How the values were obtained:
[1] = system: pulmonary arterial smooth muscle cells; assay: Suppression of proliferation of pulmonary arterial smooth muscle cells (PDGF-BB stimulation, BrdU); assay type: cell-based; settings: PASMC, 24 h; healthy human derived pulmonary arterial smooth muscle cells; human PDGF-BB 10 ng/mL stimulation; BrdU uptake after 1 day; test substance final concentration 3 to 10,000 nM; read-out: Human normal PASMC proliferation suppression (PDGF stimulation_IC50)
Method: (§1) 1. Preparation of Test Substance
Furthermore, it was diluted by 50 times with distilled water.
2. Measurement of Suppression Action Against Proliferation of Pulmonary Arterial Smooth Muscle Cells
The day after healthy human derived pulmonary arterial smooth muscle cells were seeded onto a 96 well plate using a smooth muscle cell proliferation medium, the proliferation medium was replaced with a 0.1% FBS medium, and the cells were cultured for an additional day. A test substance solution was diluted by 10 times with a medium containing BrdU and human PDGF-BB (final concentration of 10 ng/mL, Sigma-Aldrich) and added to cells in equal amounts so as to reach a final concentration of 3 to 10,000 nM. Also, to the human PDGF-BB negative control, BrdU and 0.1% DMSO solution were added. After culturing for 1 day, the amount of BrdU taken up by the proliferating cells was measured using an anti-BrdU antibody.
(§2) 3. Analysis of Measurement Results

PDGFR-β = PDGFR-β (Homo sapiens (Human), UniProt P09619); assay: PDGFR-β tyrosine kinase inhibitory action (HTRF KinEASE-TK); assay type: biochemical; settings: PDGFR-β enzyme 1 ng/μL, 30° C. for 30 minutes; read-out: PDGF-β IC50
Method: as §1
This DMSO solution was diluted by 8 times with an assay buffer 1 (50 mM HEPES (pH 7.0), 0.02% NaN3, 0.01% Bovine Serum Albumin, 0.1 mM orthovanadate, 1 mM Dithiothreitol, 5 mM MgCl2, and 1 mM MnCl2) and further diluted by 5 times with an assay buffer 2 (50 mM HEPES (pH 7.0), 0.02% NaN3, 0.01% Bovine Serum Albumin, 0.1 mM orthovanadate, 1 mM Dithiothreitol, 5 mM MgCl2, 1 mM MnCl2, and 40 nM Supplemented Enzymatic Buffer (cisbio)).
2. Measurement of PDGFR-β Tyrosine Kinase Inhibitory Action
For the measurement, the HTRF KinEASE-TK kit from Cisbio Bioassays SAS was used. To a 384 well plate, the test substance solution was added at 4 μL each, then 2 μL of a PDGFR-β enzyme solution (final concentration of 1 ng/μL, Carna Biosciences, Inc.) and 4 μL of a substrate solution obtained by adding 0.6 μM ATP to TK substrate-3-biotin (cisbio) were added, and the solution was allowed to react at 30° C. for 30 minutes at a final concentration of the test substance being 0.01 to 10,000 nM.
Thereafter, 10 μL of a detection solution (cisbio) was added to each well and allowed to react at 30° C. for 1 hour. The fluorescence intensity was measured with a microplate reader (Spectra Max M5, Molecular device).
as §2

Chain of PDGFR-β (P09619 33-1106): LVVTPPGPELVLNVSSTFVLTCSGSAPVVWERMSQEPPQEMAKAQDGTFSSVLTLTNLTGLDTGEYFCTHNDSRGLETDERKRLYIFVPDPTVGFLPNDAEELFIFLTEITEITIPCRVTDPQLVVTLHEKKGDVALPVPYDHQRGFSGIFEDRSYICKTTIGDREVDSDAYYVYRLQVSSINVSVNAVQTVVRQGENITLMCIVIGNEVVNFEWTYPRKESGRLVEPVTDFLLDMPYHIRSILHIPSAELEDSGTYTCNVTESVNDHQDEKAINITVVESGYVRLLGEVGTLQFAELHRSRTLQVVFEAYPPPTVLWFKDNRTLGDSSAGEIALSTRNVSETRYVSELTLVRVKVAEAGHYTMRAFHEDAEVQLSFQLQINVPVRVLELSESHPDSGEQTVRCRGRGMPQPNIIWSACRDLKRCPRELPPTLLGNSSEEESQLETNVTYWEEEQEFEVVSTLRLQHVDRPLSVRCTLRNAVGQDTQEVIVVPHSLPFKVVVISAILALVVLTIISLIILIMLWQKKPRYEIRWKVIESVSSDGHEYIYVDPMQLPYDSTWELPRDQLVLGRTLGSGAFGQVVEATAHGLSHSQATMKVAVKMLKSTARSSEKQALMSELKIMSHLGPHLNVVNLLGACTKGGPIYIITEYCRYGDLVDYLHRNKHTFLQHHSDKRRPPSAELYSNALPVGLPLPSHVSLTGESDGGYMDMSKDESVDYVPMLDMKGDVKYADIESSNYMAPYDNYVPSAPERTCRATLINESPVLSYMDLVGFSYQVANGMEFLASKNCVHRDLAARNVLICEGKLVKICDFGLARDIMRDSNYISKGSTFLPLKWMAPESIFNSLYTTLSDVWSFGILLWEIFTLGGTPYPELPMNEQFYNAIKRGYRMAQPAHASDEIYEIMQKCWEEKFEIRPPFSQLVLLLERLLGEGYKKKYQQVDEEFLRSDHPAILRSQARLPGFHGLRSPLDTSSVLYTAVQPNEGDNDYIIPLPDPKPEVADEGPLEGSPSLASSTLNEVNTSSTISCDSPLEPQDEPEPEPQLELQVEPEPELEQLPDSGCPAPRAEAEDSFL

| IC50 (PDGFR-β) [nM] | Structure (SMILES) | IC50 [1] [nM] |
| --- | --- | --- |
| 120 | COc1cncc(C(=O)Nc2cc(C(=O)N[C@H]3CCCC[C@@H]3O)ccc2C)c1 [Example 49, N-(5-{[(1S,2S)-2-hydroxycyclohexyl]carbamoyl}-2-methylphenyl)-5-methoxypyridine-3-carboxamide] | 250 |
| 61 | CCOc1cncc(C(=O)Nc2cc(C(=O)N[C@H]3CCCC[C@@H]3O)ccc2C)c1 [Example 50, 5-ethoxy-N-(5-{[(1S,2S)-2-hydroxycyclohexyl]carbamoyl}-2-methylphenyl)pyridine-3-carboxamide] | 270 |
| 61 | Cc1ccc(C(=O)N[C@H]2CCCC[C@@H]2O)cc1NC(=O)c1cncc(Oc2ccccn2)c1 [Example 51, N-(5-{[(1S,2S)-2-hydroxycyclohexyl]carbamoyl}-2-methylphenyl)-5-[(pyridin-2-yl)oxy]pyridine-3-carboxamide] | 180 |
| 77 | Cc1ccc(C(=O)N[C@H]2CCCC[C@@H]2O)cc1NC(=O)c1cncc(Oc2ncccn2)c1 [Example 52, N-(5-{[(1S,2S)-2-hydroxycyclohexyl]carbamoyl}-2-methylphenyl)-5-[(pyrimidin-2-yl)oxy]pyridine-3-carboxamide] | 420 |
| 12 | Cc1ccc(C(=O)N[C@H]2CCCC[C@@H]2O)cc1NC(=O)c1cncc(OCC2(C)CC2)c1 [Example 53, N-(5-{[(1S,2S)-2-hydroxycyclohexyl]carbamoyl}-2-methylphenyl)-5-[(1-methylcyclopropyl)methoxy]pyridine-3-carboxamide] | 71 |
| 40 | Cc1ccc(C(=O)N[C@H]2CCCC[C@@H]2O)cc1NC(=O)c1cncc(OCC2CC(F)(F)C2)c1 [Example 54, 5-[(3,3-difluorocyclobutyl)methoxy]-N-(5-{[(1S,2S)-2-hydroxycyclohexyl]carbamoyl}-2-methylphenyl)pyridine-3-carboxamide] | 340 |
| 83 | O=C(N[C@H]1CCCC[C@@H]1O)c1ccc(Cl)c(NC(=O)c2cnc(CC3CC3)s2)c1 [Example 55, N-(2-chloro-5-{[(1S,2S)-2-hydroxycyclohexyl]carbamoyl}phenyl)-2-(cyclopropylmethyl)-1,3-thiazole-5-carboxamide] | 69 |
| 120 | O=C(Nc1cc(C(=O)N[C@H]2CCCC[C@@H]2O)ccc1F)c1cncc(OCC2CC2)c1 [Example 56, 5-(cyclopropylmethoxy)-N-(2-fluoro-5-{[(1S,2S)-2-hydroxycyclohexyl]carbamoyl}phenyl)pyridine-3-carboxamide] | 240 |
| 10 | Cc1ccc(C(=O)N[C@H]2CCCC[C@@H]2O)cc1C#Cc1cncc(NCC2CC2)n1 [Example 72, 3-({6-[(cyclopropylmethyl)amino]pyrazin-2-yl}ethynyl)-N-[(1S,2S)-2-hydroxycyclohexyl]-4-methylbenzamide] | 70 |
| – | CC(=O)Nc1ccc(CNc2cc(C(=O)N[C@H]3CCCC[C@@H]3O)ccc2C)cn1 [Example 116, 3-{[(6-acetamidopyridin-3-yl)methyl]amino}-N-[(1S,2S)-2-hydroxycyclohexyl]-4-methylbenzamide] | 120 |
| 190 | Cc1ccc(C(=O)N[C@H]2CCCC[C@@H]2O)cc1OC(C)c1cncc(-c2ccccc2)c1 (stereo partly drawn) [Example 172, N-[(1S,2S)-2-hydroxycyclohexyl]-4-methyl-3-[1-(5-phenylpyridin-3-yl)ethoxy]benzamide] | – |
| 24 | Cc1ccc(C(=O)N[C@H]2CCCC[C@@H]2O)cc1CN(C)c1cncc(-c2ccccc2)c1 [Example 175, N-[(1S,2S)-2-hydroxycyclohexyl]-4-methyl-3-{[methyl(5-phenylpyridin-3-yl)amino]methyl}benzamide] | – |
| 50 | CCN(Cc1cc(C(=O)N[C@H]2CCCC[C@@H]2O)ccc1C)c1cncc(-c2ccccc2)c1 [Example 176, 3-{[ethyl(5-phenylpyridin-3-yl)amino]methyl}-N-[(1S,2S)-2-hydroxycyclohexyl]-4-methylbenzamide] | – |
